Test results published in patent US12729367B2, “Radial glia and astrocyte differentiation from human pluripotent stem cells” (The United States of America, as represented by the …, priority 2020, dated 2026).

Experiments:
iPSC-derived astrocytes = experiment: Calcium transients in iPSC-derived astrocytes in response to stimuli; type: cell-based, human; conditions: DMSO as control treatment, FIG. 15
[1] = as described in Sidrauski et al.; cited from earlier work

Compound	intracellular calcium levels (iPSC-derived astrocytes)	IC50 [1] [nM]	potency of trans-ISRIB relative to cis-ISRIB [1] [fold]
Nc1ncnc2c1ncn2[C@@H]1O[C@H](COP(=O)(O)OP(=O)(O)OP(=O)(O)O)[C@@H](O)[C@H]1O [ATP]	increase of intracellular calcium levels	–	–
[Cl-].[K+] [KCL]	increase of intracellular calcium levels	–	–
N[C@@H](CCC(=O)O)C(=O)O [glutamate]	increase of intracellular calcium levels	–	–
O=C(COc1ccc(Cl)cc1)N[C@H]1CC[C@H](NC(=O)COc2ccc(Cl)cc2)CC1 [trans-ISRIB, N,N′-((1r,4r)-cyclohexane-1,4-diyl)bis(2-(4-chlorophenoxy)acetamide)]	–	5	100
